Test system: COS-1 cells
Assay: In vitro mammalian cytotoxicity assay (Resazurin)

SMILES	In Vitro Cytotoxicity
CCCCCCc1ccc(O)c2c1C[C@@]1(N)C[C@@]3(N)[C@H](N(C)C)C(O)=C(C(N)=O)C(=O)[C@@]3(C#N)C(O)=C1C2=O [JE]	** (toxicities less than 25 μg/mL are represented by **)
CSc1ccc(OC(=O)Nc2cc(N(C)C)c3c(c2O)C(=O)C2=C(O)[C@]4(C#N)C(=O)C(C(N)=O)=C(O)[C@@H](N(C)C)[C@]4(N)C[C@]2(N)C3)cc1 [KR]	* (toxicities greater than >25 μg/ml are represented by *)
CCOC(=O)C(Cc1ccccc1)NCc1ccc(OC)c(-c2ccc(O)c3c2C[C@@]2(N)C[C@@]4(N)[C@H](N(C)C)C(O)=C(C(N)=O)C(=O)[C@@]4(C#N)C(O)=C2C3=O)c1 (stereo partly drawn) [OB]	** (toxicities less than 25 μg/mL are represented by **)
CN(C)[C@@H]1C(O)=C(C(N)=O)C(=O)[C@@]2(C#N)C(O)=C3C(=O)c4c(O)ccc(-c5ccc(I)cc5)c4C[C@@]3(N)C[C@@]12N [CW]	** (toxicities less than 25 μg/mL are represented by **)
CN(C)c1cc(NC(=O)NC(=O)c2ccccc2)c(O)c2c1C[C@@]1(N)C[C@@]3(N)[C@H](N(C)C)C(O)=C(C(N)=O)C(=O)[C@@]3(C#N)C(O)=C1C2=O [IK]	* (toxicities greater than >25 μg/ml are represented by *)
CCc1cc(CN)c(O)c2c1C[C@@]1(N)C[C@@]3(N)[C@H](N(C)C)C(O)=C(C(N)=O)C(=O)[C@@]3(C#N)C(O)=C1C2=O [IZ]	* (toxicities greater than >25 μg/ml are represented by *)
CC(=O)c1ccc(/C=C2\c3cccc(O)c3C(=O)C3=C(O)[C@]4(C#N)C(=O)C(C(N)=O)=C(O)[C@@H](N(C)C)[C@]4(N)[C@@H](O)[C@@]32N)cc1 [DE]	** (toxicities less than 25 μg/mL are represented by **)
CN(C)c1cc(NCC2CCCCC2)c(O)c2c1C[C@@]1(N)C[C@@]3(N)[C@H](N(C)C)C(O)=C(C(N)=O)C(=O)[C@@]3(C#N)C(O)=C1C2=O [MR]	** (toxicities less than 25 μg/mL are represented by **)
CN(C)c1cc(CNC(=O)NCC(Cl)(Cl)Cl)c(O)c2c1C[C@@]1(N)C[C@@]3(N)[C@H](N(C)C)C(O)=C(C(N)=O)C(=O)[C@@]3(C#N)C(O)=C1C2=O [MX]	** (toxicities less than 25 μg/mL are represented by **)
CCCN(CCC)Cc1ccc(-c2ccc(O)c3c2C[C@@]2(N)C[C@@]4(N)[C@H](N(C)C)C(O)=C(C(N)=O)C(=O)[C@@]4(C#N)C(O)=C2C3=O)c2ccccc12 [OP]	** (toxicities less than 25 μg/mL are represented by **)
CN(C)c1cc(C#CCNS(C)(=O)=O)c(O)c2c1C[C@@]1(N)C[C@@]3(N)[C@H](N(C)C)C(O)=C(C(N)=O)C(=O)[C@@]3(C#N)C(O)=C1C2=O [IP]	* (toxicities greater than >25 μg/ml are represented by *)
Cc1cccc(-c2ccc(O)c3c2C[C@@]2(N)C[C@@]4(N)[C@H](N(C)C)C(O)=C(C(N)=O)C(=O)[C@@]4(C#N)C(O)=C2C3=O)n1 [VJ]	** (toxicities less than 25 μg/mL are represented by **)
CN(C)c1cc(-c2ccoc2)c(O)c2c1C[C@@]1(N)C[C@@]3(N)[C@H](N(C)C)C(O)=C(C(N)=O)C(=O)[C@@]3(C#N)C(O)=C1C2=O [SN]	** (toxicities less than 25 μg/mL are represented by **)
CN(C)[C@@H]1C(O)=C(C(N)=O)C(=O)[C@@]2(C#N)C(O)=C3C(=O)c4c(O)ccc(-c5ccc(CNCCc6ccc(Cl)cc6)cc5)c4C[C@@]3(N)C[C@@]12N [OF]	** (toxicities less than 25 μg/mL are represented by **)
CCC(CC)CCc1ccc(O)c2c1C[C@@]1(N)C[C@@]3(N)[C@H](N(C)C)C(O)=C(C(N)=O)C(=O)[C@@]3(C#N)C(O)=C1C2=O [GX]	** (toxicities less than 25 μg/mL are represented by **)
CN(C)[C@@H]1C(O)=C(C(N)=O)C(=O)[C@@]2(C#N)C(O)=C3C(=O)c4c(O)c(CN)cc(-c5ccc(I)cc5)c4C[C@@]3(N)C[C@@]12N [JT]	* (toxicities greater than >25 μg/ml are represented by *)
CN(C)[C@@H]1C(O)=C(C(N)=O)C(=O)[C@@]2(C#N)C(O)=C3C(=O)c4c(O)ccc(-c5ccc(CN6CCCC6)cc5)c4C[C@@]3(N)C[C@@]12N [HM]	* (toxicities greater than >25 μg/ml are represented by *)
CCCCCc1cc(CC2C(=O)c3ccccc3C2=O)c(O)c2c1C[C@@]1(N)C[C@@]3(N)[C@H](N(C)C)C(O)=C(C(N)=O)C(=O)[C@@]3(C#N)C(O)=C1C2=O [LA]	** (toxicities less than 25 μg/mL are represented by **)
CN(C)[C@@H]1C(O)=C(C(N)=O)C(=O)[C@@]2(C#N)C(O)=C3C(=O)c4c(O)ccc(-c5cc(F)cc(F)c5)c4C[C@@]3(N)C[C@@]12N [PM]	** (toxicities less than 25 μg/mL are represented by **)
CN(C)[C@@H]1C(O)=C(C(N)=O)C(=O)[C@@]2(C#N)C(O)=C3C(=O)c4c(O)ccc(-c5ccc(CNC6CC6)o5)c4C[C@@]3(N)C[C@@]12N [SX]	** (toxicities less than 25 μg/mL are represented by **)

SMILES	In Vitro Cytotoxicity
CN(C)[C@@H]1C(O)=C(C(N)=O)C(=O)[C@@]2(C#N)C(O)=C3C(=O)c4c(ccc(-c5cc6ccccc6[nH]5)c4O)[C@H](N)[C@@]3(N)[C@H]([S+](N)[O-])[C@@]12N (stereo partly drawn) [BT]	** (toxicities less than 25 μg/mL are represented by **)
CN(C)c1cc(-c2ccc(F)cc2F)c(O)c2c1C[C@@]1(N)C[C@@]3(N)[C@H](N(C)C)C(O)=C(C(N)=O)C(=O)[C@@]3(C#N)C(O)=C1C2=O [EX]	** (toxicities less than 25 μg/mL are represented by **)
CN(C)c1cc(CCc2ccc(F)cc2)c(O)c2c1C[C@@]1(N)C[C@@]3(N)[C@H](N(C)C)C(O)=C(C(N)=O)C(=O)[C@@]3(C#N)C(O)=C1C2=O [KF]	** (toxicities less than 25 μg/mL are represented by **)
CN(C)[C@@H]1C(O)=C(C(N)=O)C(=O)[C@@]2(C#N)C(O)=C3C(=O)c4c(O)cccc4/C(=C\c4cc(F)cc(F)c4)[C@@]3(N)[C@H](O)[C@@]12N [DR]	* (toxicities greater than >25 μg/ml are represented by *)
CC(C)COC(=O)NCc1ccc(-c2ccc(O)c3c2C[C@@]2(N)C[C@@]4(N)[C@H](N(C)C)C(O)=C(C(N)=O)C(=O)[C@@]4(C#N)C(O)=C2C3=O)cc1 [NS]	** (toxicities less than 25 μg/mL are represented by **)
CC(=O)OCCCC(C)(C)c1ccc2c(c1O)C(=O)C1=C(O)[C@]3(C#N)C(=O)C(C(N)=O)=C(O)[C@@H](N(C)C)[C@]3(N)[C@@H](O)[C@]1(N)[C@H]2N [BA]	** (toxicities less than 25 μg/mL are represented by **)
CN(C)[C@@H]1C(O)=C(C(N)=O)C(=O)[C@@]2(C#N)C(O)=C3C(=O)c4c(O)ccc(C#Cc5ccccc5)c4C[C@@]3(N)C[C@@]12N [FB]	** (toxicities less than 25 μg/mL are represented by **)
CN(C)[C@@H]1C(O)=C(C(N)=O)C(=O)[C@@]2(C#N)C(O)=C3C(=O)c4c(O)ccc(-c5ccc(CNCc6ccccc6)o5)c4C[C@@]3(N)C[C@@]12N [SS]	** (toxicities less than 25 μg/mL are represented by **)
CN(C)[C@@H]1C(O)=C(C(N)=O)C(=O)[C@@]2(C#N)C(O)=C3C(=O)c4c(O)cccc4[C@H](N)[C@@]3(N)[C@H](OC(=O)Nc3ccc(O)cc3[N+](=O)O)[C@@]12N [BN]	* (toxicities greater than >25 μg/ml are represented by *)
CN(C)[C@@H]1C(O)=C(C(N)=O)C(=O)[C@@]2(C#N)C(O)=C3C(=O)c4c(O)c(I)cc(I)c4[C@H](N)[C@@]3(N)[C@H](O)[C@@]12N [CT]	** (toxicities less than 25 μg/mL are represented by **)
Cc1ccc(-c2ccc(O)c3c2C[C@@]2(N)C[C@@]4(N)[C@H](N(C)C)C(O)=C(C(N)=O)C(=O)[C@@]4(C#N)C(O)=C2C3=O)s1 [GJ]	** (toxicities less than 25 μg/mL are represented by **)
COCCOC(=O)Nc1ccc(-c2ccc(O)c3c2C[C@@]2(N)C[C@@]4(N)[C@H](N(C)C)C(O)=C(C(N)=O)C(=O)[C@@]4(C#N)C(O)=C2C3=O)cc1 [PY]	* (toxicities greater than >25 μg/ml are represented by *)
CN(C)c1cc(NCC2=CC=C(C(C)(C)C)CC2)c(O)c2c1C[C@@]1(N)C[C@@]3(N)[C@H](N(C)C)C(O)=C(C(N)=O)C(=O)[C@@]3(C#N)C(O)=C1C2=O [TX]	** (toxicities less than 25 μg/mL are represented by **)
COc1ccc(C#Cc2cc(N(C)C)c3c(c2O)C(=O)C2=C(O)[C@]4(C#N)C(=O)C(C(N)=O)=C(O)[C@@H](N(C)C)[C@]4(N)C[C@]2(N)C3)cc1 [FE]	** (toxicities less than 25 μg/mL are represented by **)
CN(C)c1cc(NCc2ccccc2)c(O)c2c1C[C@@]1(N)C[C@@]3(N)[C@H](N(C)C)C(O)=C(C(N)=O)C(=O)[C@@]3(C#N)C(O)=C1C2=O [LO]	** (toxicities less than 25 μg/mL are represented by **)
CN(C)c1cc(NC(=O)Nc2ccccc2)c(O)c2c1C[C@@]1(N)C[C@@]3(N)[C@H](N(C)C)C(O)=C(C(N)=O)C(=O)[C@@]3(C#N)C(O)=C1C2=O [IB]	* (toxicities greater than >25 μg/ml are represented by *)
CN(C)[C@@H]1C(O)=C(C(N)=O)C(=O)[C@@]2(C#N)C(O)=C3C(=O)c4c(O)ccc(-c5cccc(CNCc6ccccc6)c5)c4C[C@@]3(N)C[C@@]12N [HN]	** (toxicities less than 25 μg/mL are represented by **)
CN(C)[C@@H]1C(O)=C(C(N)=O)C(=O)[C@@]2(C#N)C(O)=C3C(=O)c4c(O)ccc(-c5ccc(CNCc6cccc(F)c6)cc5)c4C[C@@]3(N)C[C@@]12N [OG]	** (toxicities less than 25 μg/mL are represented by **)
CN(C)c1cc(NC(=O)Nc2cccc3ccccc23)c(O)c2c1C[C@@]1(N)C[C@@]3(N)[C@H](N(C)C)C(O)=C(C(N)=O)C(=O)[C@@]3(C#N)C(O)=C1C2=O [IA]	* (toxicities greater than >25 μg/ml are represented by *)
